{
  "source": "ChEMBL document CHEMBL1201862",
  "about": "“PubChem BioAssay data set” (2004)",
  "key": {"[1]": {"experiment": "Dose-response inhibition of insulin secretion in a rat insulinoma line at 5 mM glucose (AID 1117331)", "assay_type": "functional, cell-based", "conditions": "INS-1E"}, "cells": {"experiment": "cells", "assay_type": "functional, cell-based", "conditions": "INS-1E"}, "Transthyretin": {"biological_target": "Transthyretin (Homo sapiens, UniProt P02766)", "experiment": "Luminescence-based cell-based high throughput dose response assay to identify activators of Transthyretin (TTR) transcription.", "assay_type": "functional"}, "BJ [2]": {"test_system": "BJ", "experiment": "cytotoxicity toward BJ-TERT fibroblasts, dose response, cell-based, RAS-independent, luminescence (AID 1933)", "assay_type": "functional", "conditions": "Homo sapiens"}, "BJ [3]": {"test_system": "BJ", "experiment": "cells", "assay_type": "functional, cell-based", "conditions": "Homo sapiens"}, "[4]": {"biological_target": "Luciferin 4-monooxygenase (Photinus pyralis, UniProt P08659)", "sequence (P08659 whole entry)": "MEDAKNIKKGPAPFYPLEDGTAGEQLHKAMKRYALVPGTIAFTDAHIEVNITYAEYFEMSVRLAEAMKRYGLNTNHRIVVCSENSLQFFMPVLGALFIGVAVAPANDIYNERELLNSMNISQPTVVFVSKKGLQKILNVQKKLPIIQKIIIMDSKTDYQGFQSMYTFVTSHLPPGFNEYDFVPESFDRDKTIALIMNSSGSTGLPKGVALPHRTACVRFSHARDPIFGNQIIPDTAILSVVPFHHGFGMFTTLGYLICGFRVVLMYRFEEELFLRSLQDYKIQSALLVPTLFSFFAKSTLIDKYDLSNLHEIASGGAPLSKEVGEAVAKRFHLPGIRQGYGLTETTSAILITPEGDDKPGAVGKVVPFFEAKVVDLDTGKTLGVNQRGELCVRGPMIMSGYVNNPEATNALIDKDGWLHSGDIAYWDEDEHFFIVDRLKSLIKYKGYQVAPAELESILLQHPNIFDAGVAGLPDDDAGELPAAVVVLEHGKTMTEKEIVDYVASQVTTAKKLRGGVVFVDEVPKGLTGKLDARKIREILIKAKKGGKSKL", "experiment": "firefly luciferase enzyme inhibitors, dose response, biochemical, luminescence (AID 1891)"}, "[5]": {"experiment": "Luminescence Cell-Based Dose Confirmation HTS to Identify Inhibitors of Platelet Dense Granule Release. [Related pubchem assays: 1663 (Primary HTS), 1678 (Summary of Project)]", "assay_type": "functional"}, "BJ [6]": {"test_system": "BJ", "experiment": "cytotoxicity toward BJ-TERT-LT-ST fibroblasts, dose response, cell-based, RAS-independent, luminescence (AID 1935);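 also: BJ fibroblasts immortalized with TERT plus LT and ST oncogenes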", "assay_type": "functional", "conditions": "Homo sapiens"}, "[7]": {"experiment": "cytotoxicity toward DRD oncogenic fibroblasts, dose response, cell-based, non-viral oncogenic, luminescence (AID 1934)", "assay_type": "functional", "conditions": "Homo sapiens"}, "[8]": {"experiment": "A549 cell cytotoxicity, dose response, cytotoxicity control, plate reader, cherry-pick, antagonist series (AID 743412)", "assay_type": "functional, cell-based"}, "[9]": {"experiment": "HepG2 cell cytotoxicity, dose response, cytotoxicity control, plate reader, cherry-pick, antagonist series (AID 743416)", "assay_type": "functional, cell-based"}, "[10]": {"experiment": "LGR2 antagonists, dose response, cell-based, HEK293, CRE-luciferase reporter, cherry pick, set 2 (AID 743343);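 also: transfected cells were stimulated with diluted bursicon conditioned medium after compound addition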", "assay_type": "functional"}, "[11]": {"experiment": "MC4R antagonists, dose response, counter-screen for LGR2 antagonist project, cell-based, plate reader, cherry pick (AID 743444);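 also: transfected HEK 293 cells stimulated with alpha-MSH peptide; potency of inhibitors of the alpha-MSH evoked signal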", "assay_type": "functional"}, "[12]": {"experiment": "HEK293 cell cytotoxicity, dose response, cytotoxicity control, plate reader, cherry-picked samples (AID 743446)", "assay_type": "functional, cell-based"}, "[13]": {"experiment": "Luminescence-based cell-based high throughput dose response assay to identify activators of the DAF-12 from the parasite S. stercoralis (ssDAF-12).", "assay_type": "functional"}, "[14]": {"biological_target": "T1, Oxysterols receptor LXR-beta (Homo sapiens, UniProt P55055)", "T1 sequence (P55055 whole entry)": "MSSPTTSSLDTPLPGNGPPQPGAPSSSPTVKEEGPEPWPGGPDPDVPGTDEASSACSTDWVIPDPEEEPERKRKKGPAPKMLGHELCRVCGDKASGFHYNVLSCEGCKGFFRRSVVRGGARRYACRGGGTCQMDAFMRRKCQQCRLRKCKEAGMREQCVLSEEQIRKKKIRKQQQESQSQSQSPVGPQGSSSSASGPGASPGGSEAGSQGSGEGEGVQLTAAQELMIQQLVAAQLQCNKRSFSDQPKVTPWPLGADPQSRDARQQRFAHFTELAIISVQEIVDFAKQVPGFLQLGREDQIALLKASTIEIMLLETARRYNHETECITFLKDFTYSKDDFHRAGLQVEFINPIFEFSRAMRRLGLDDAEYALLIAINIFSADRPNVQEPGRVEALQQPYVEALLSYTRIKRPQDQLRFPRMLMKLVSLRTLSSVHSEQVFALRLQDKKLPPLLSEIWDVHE", "experiment": "LXR agonists, Gal4 luciferase reporter, dose response, counter-screen for ssDAF-12 agonist project, cell-based, luminescence, HEK293, S. stercoralis campaign (AID 720737)", "assay_type": "functional", "conditions": "read-out: IC50 (the source's name)"}, "HEK293": {"test_system": "HEK293", "experiment": "HEK293T cell cytotoxicity, dose response, cytotoxicity control, ATP luminescence, cherry-pick samples (AID 687005);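 also: cells exposed to compound for 48 hours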", "assay_type": "functional, cell-based", "conditions": "Homo sapiens"}, "[15]": {"experiment": "HEK293 Cytotoxicity Assay Measured in Cell-Based System Using Plate Reader - 7071-01_Inhibitor_Dose_CherryPick_Activity_Set2.", "assay_type": "functional"}},
  "note": "Active and inactive are the calls of the source.",
  "data": [
    {"smiles": "CN1CCc2cc(Cl)c(O)cc2[C@H]2c3ccccc3CC[C@@H]21", "note": "[ECOPIPAM]", "values": [
      {"measurement": "IC50", "setting": "[1]", "result": "15.4 µM (inactive)"},
      {"measurement": "IC50", "setting": "cells", "result": "> 33.3 µM (inactive)"}
    ]},
    {"smiles": "Cc1cccc(NC(c2ccc(O)cc2)c2ccc3ccc(C)nc3c2O)n1", "note": "(centres undefined)", "values": [
      {"measurement": "EC50", "setting": "Transthyretin", "result": "> 167 µM (inactive)"}
    ]},
    {"smiles": "CCOc1ccc(Nc2nc(N)c3ccccc3n2)cc1", "values": [
      {"measurement": "EC50", "setting": "BJ [2]", "result": "7.8 µM (active)"},
      {"measurement": "EC50", "setting": "BJ [3]", "result": "8.24 µM (active)"},
      {"measurement": "EC50", "setting": "[4]", "result": "0.765 µM (active)"},
      {"measurement": "EC50", "setting": "[5]", "result": "0.738 µM (active)"},
      {"measurement": "EC50", "setting": "BJ [6]", "result": "17.5 µM (active)"},
      {"measurement": "EC50", "setting": "[7]", "result": "8.22 µM (active)"},
      {"measurement": "AC50", "setting": "[8]", "result": "12.8 µM (active)"},
      {"measurement": "AC50", "setting": "[9]", "result": "12.9 µM (active)"},
      {"measurement": "AC50", "setting": "[10]", "result": "1.62 µM (active)"},
      {"measurement": "AC50", "setting": "[11]", "result": "2.31 µM (active)"},
      {"measurement": "AC50", "setting": "[12]", "result": "13.2 µM (active)"}
    ]},
    {"smiles": "O=C(O)C(=O)/C(=C\\c1ccccc1)c1ccc2ccccc2n1", "values": [
      {"measurement": "IC50", "setting": "[13]", "result": "> 67.5 µM (inactive)"},
      {"measurement": "EC50", "setting": "[14]", "result": "> 67.5 µM (inactive)"}
    ]},
    {"smiles": "CC(C)CNC(=O)CSc1nnc2ccccn12", "values": [
      {"measurement": "EC50", "setting": "Transthyretin", "result": "> 167 µM (inactive)"}
    ]},
    {"smiles": "O=C(CN1CCOCC1)N[C@@H]1CC[C@@H](CCNC(=O)C2CCC2)O[C@@H]1CO", "values": [
      {"measurement": "AC50", "setting": "HEK293", "result": "14.8 µM (active)"},
      {"measurement": "AC50", "setting": "[15]", "result": "14.8 µM (active)"}
    ]}
  ]
}
